Source: US12582657B2, “Combination therapy including a KRAS G12C inhibitor and one or more additional pharmaceutically active agents for the treatment of cancers” (Amgen Inc., priority 2018, dated 2026)

Experiments:
A-427 cells = assay: Cell viability assay (CellTiter-Glo, adherent); assay type: cell-based; details: Homo sapiens, A-427, lung, KRAS p.G12D heterozygous, 72-hour treatment
Protocol: (§1) For adherent viability assays, 0.5-1.0E+03 cells were seeded per well in 384-well plates (or 2.5-4.0E+04 cells per well in 96-well plates) and incubated at 37° C., 5% CO2, o/n. The following day, serially-diluted compound or DMSO was added to the cells, and the plates were incubated at 37° C., 5% CO2 for 72 hours. Cell viability was measured using a CellTiter-Glo® Luminescent Cell Viability Assay kit (Promega) according to the manufacturer's protocol. The luminescence signal of treated samples was normalized to DMSO control.

A549 cells = assay: Cell viability assay (CellTiter-Glo, adherent); assay type: cell-based; details: Homo sapiens, A549, lung, KRAS p.G12S homozygous, 72-hour treatment
Protocol: as §1

AsPC-1 cells = assay: Cell viability assay (CellTiter-Glo, adherent); assay type: cell-based; details: Homo sapiens, ASPC1, AsPC-1, pancreas, KRAS p.G12D homozygous, 72-hour treatment
Protocol: as §1

Calu-1 cells = assay: Cell viability assay (CellTiter-Glo, adherent); assay type: cell-based; details: Homo sapiens, Calu-1, lung, KRAS p.G12C heterozygous, 72-hour treatment
Protocol: as §1

HCC-827 cells = assay: Cell viability assay (CellTiter-Glo, adherent); assay type: cell-based; details: Homo sapiens, HCC827, HCC-827, lung, KRAS WT EGFR p.E746_A750del, 72-hour treatment
Protocol: as §1

KM12 cells = assay: Cell viability assay (CellTiter-Glo, adherent); assay type: cell-based; details: Homo sapiens, KM12, colon, KRAS WT TPM3-NTRK fusion, 72-hour treatment
Protocol: as §1

LS 174T cells = assay: Cell viability assay (CellTiter-Glo, adherent); assay type: cell-based; details: Homo sapiens, LS174T, colon, KRAS p.G12D heterozygous, 72-hour treatment
Protocol: as §1

MIA PaCa-2 cells [1] = assay: Cell viability assay (CellTiter-Glo, adherent); assay type: cell-based; details: Homo sapiens, 72-hour treatment
Protocol: as §1

NCI-H1322 cells = assay: Cell viability assay (CellTiter-Glo, adherent); assay type: cell-based; details: Homo sapiens, 72 h, read-out: Cell Viability IC50
Protocol: as §1

NCI-H1355 cells = assay: Cell viability assay (CellTiter-Glo, adherent); assay type: cell-based; details: Homo sapiens, NCI-H1355, lung, KRAS p.G13C heterozygous, 72-hour treatment
Protocol: as §1

NCI-H1373 cells [2] = assay: Cell viability assay (CellTiter-Glo, adherent); assay type: cell-based; details: Homo sapiens, NCI-H1373, lung, KRAS p.G12C homozygous, 72-hour treatment
Protocol: as §1

NCI-H1792 cells = assay: Cell viability assay (CellTiter-Glo, adherent); assay type: cell-based; details: Homo sapiens, NCI-H1792, lung, KRAS p.G12C heterozygous, 72-hour treatment
Protocol: as §1

NCI-H2030 cells = assay: Cell viability assay (CellTiter-Glo, adherent); assay type: cell-based; details: Homo sapiens, NCI-H2030, lung, KRAS p.G12C homozygous, 72-hour treatment
Protocol: as §1

NCI-H2122 cells [3] = assay: Cell viability assay (CellTiter-Glo, adherent); assay type: cell-based; details: Homo sapiens, NCI-H2122, lung, KRAS p.G12C homozygous, 72-hour treatment
Protocol: as §1

NCI-H23 cells = assay: Cell viability assay (CellTiter-Glo, adherent); assay type: cell-based; details: Homo sapiens, NCI-H23, lung, KRAS p.G12C heterozygous, 72-hour treatment
Protocol: as §1

NCI-H358 cells [4] = assay: Cell viability assay (CellTiter-Glo, adherent); assay type: cell-based; details: Homo sapiens, 72-hour treatment
Protocol: as §1

SW1463 cells = assay: Cell viability assay (CellTiter-Glo, adherent); assay type: cell-based; details: Homo sapiens, SW1463, colon, KRAS p.G12C homozygous, 72-hour treatment
Protocol: as §1

SW1573 cells [5] = assay: Cell viability assay (CellTiter-Glo, adherent); assay type: cell-based; details: Homo sapiens, SW1573, lung, KRAS p.G12C homozygous, 72-hour treatment
Protocol: as §1

SW480 cells = assay: Cell viability assay (CellTiter-Glo, adherent); assay type: cell-based; details: Homo sapiens, SW480, colon, KRAS p.G12V homozygous, 72-hour treatment
Protocol: as §1

SW837 cells = assay: Cell viability assay (CellTiter-Glo, adherent); assay type: cell-based; details: Homo sapiens, SW837, colon, KRAS p.G12C heterozygous, 72-hour treatment
Protocol: as §1

UM-UC-3 cells = assay: Cell viability assay (CellTiter-Glo, adherent); assay type: cell-based; details: Homo sapiens, UMUC3, UM-UC-3, bladder, KRAS p.G12C homozygous, 72-hour treatment
Protocol: as §1

MIA PaCa-2 cells [6] = assay: Spheroid cell viability assay (CellTiter-Glo 3D); assay type: cell-based; details: Homo sapiens; MIA PaCa-2, pancreas, KRAS p.G12C homozygous; 72-hour treatment, spheroid culture
Protocol: (§2) For spheroid viability assays, 2.5-4.0E+04 cells were seeded per well in 96-well spheroid microplates (Corning) and incubated at 37° C., 5% CO2 for 24 hours. The same procedure was followed as described above, except viability was measured using a CellTiter-Glo® 3D Cell Viability Assay kit (Promega) according to the manufacturer's protocol.

NCI-H1373 cells [7] = assay: Spheroid cell viability assay (CellTiter-Glo 3D); assay type: cell-based; details: Homo sapiens; NCI-H1373, lung, KRAS p.G12C homozygous; 72-hour treatment, spheroid culture
Protocol: as §2

NCI-H2122 cells [8] = assay: Spheroid cell viability assay (CellTiter-Glo 3D); assay type: cell-based; details: Homo sapiens; NCI-H2122, lung, KRAS p.G12C homozygous; 72-hour treatment, spheroid culture
Protocol: as §2

NCI-H358 cells [9] = assay: Spheroid cell viability assay (CellTiter-Glo 3D); assay type: cell-based; details: Homo sapiens; NCI-H358, lung, KRAS p.G12C heterozygous; 72-hour treatment, spheroid culture
Protocol: as §2

SW1573 cells [10] = assay: Spheroid cell viability assay (CellTiter-Glo 3D); assay type: cell-based; details: Homo sapiens; SW1573, lung, KRAS p.G12C homozygous; 72-hour treatment, spheroid culture
Protocol: as §2

[11] = tested on: KRASp.G12V (SW480-1AC) tumor xenografts; assay: Tumor xenograft efficacy study; assay type: in vivo, mouse
physchem = details: 5 mM glutathione

C=CC(=O)N1CCN(c2nc(=O)n(-c3c(C)ccnc3C(C)C)c3nc(-c4c(O)cccc4F)c(F)cc23)[C@@H](C)C1 (atropisomer, axis not shown) [AMG 510, 6-fluoro-7-(2-fluoro-6-hydroxyphenyl)-1-(4-methyl-2-(2-propanyl)-3-pyridinyl)-4-((2S)-2-methyl-4-(2-propenoyl)-1-piperazinyl)pyrido[2,3-d]pyrimidin-2(1H)-one]
IC50 (A-427 cells): > 7500 nM
IC50 (A549 cells): > 7500 nM
IC50 (AsPC-1 cells): > 7500 nM
IC50 (Calu-1 cells): 4 ± 1 nM
IC50 (HCC-827 cells): > 7500 nM
IC50 (KM12 cells): > 7500 nM
IC50 (LS 174T cells): > 7500 nM
IC50 (MIA PaCa-2 cells [1]; second of two lines (FIG. 40G: MIA PaCa-2), read-out: cellular viability IC50): ~9 nM
IC50 (MIA PaCa-2 cells [1]; MIA PaCa-2, pancreas, KRAS p.G12C homozygous, adherent, read-out: Cell Viability IC50): 5 ± 1 nM
IC50 (NCI-H1322 cells): > 7500 nM
IC50 (NCI-H1355 cells): > 7500 nM
IC50 (NCI-H1373 cells [2]): 20 ± 6 nM
IC50 (NCI-H1792 cells): 11 ± 8 nM
IC50 (NCI-H2030 cells): 6 ± 3 nM
IC50 (NCI-H2122 cells [3]): 32 ± 5 nM
IC50 (NCI-H23 cells): 6 ± 1 nM
IC50 (NCI-H358 cells [4]; first of two lines (FIG. 40G: NCI-H358), read-out: cellular viability IC50): ~6 nM
IC50 (NCI-H358 cells [4]; NCI-H358, lung, KRAS p.G12C heterozygous, adherent, read-out: Cell Viability IC50): 4 ± 1 nM
IC50 (SW1463 cells): 15 ± 7 nM
IC50 (SW1573 cells [5]): > 7500 nM
IC50 (SW480 cells): > 7500 nM
IC50 (SW837 cells): 9 ± 6 nM
IC50 (UM-UC-3 cells): 5 ± 1 nM
IC50 (MIA PaCa-2 cells [6]): 1 ± 1 nM
IC50 (NCI-H1373 cells [7]): 5 ± 2 nM
IC50 (NCI-H2122 cells [8]): 9 ± 2 nM
IC50 (NCI-H358 cells [9]): 3 ± 2 nM
IC50 (SW1573 cells [10]): > 10000 nM
tumor growth [11]: no effect
half-life (physchem): 3.27 h
